Read-outs that look alike come from different tables or passages of the source. Starred links: 1 amine or outer side, 2 acyl side, 3 side chain; linkers in the order of their positions; H or OH if unused. Positions of bridges follow the written chain, without caps; N, C: chain ends. Non-standard residues stand in square brackets, D forms with d. Residues, ends and D or L forms follow the SMILES beside them. *: point of attachment. Phe(4-(CH2)5CO) = O=C([C@H](Cc1ccc(CCCCCC(=O)[*:3])cc1)N[*:1])[*:2]; Phe(3-(CH2)4CO) = O=C([C@H](Cc1cccc(CCCCC(=O)[*:3])c1)N[*:1])[*:2]; NMeF = CN[C@@H](Cc1ccccc1)C(=O)O; NMeI = CC[C@H](C)[C@H](NC)C(=O)O; NMeβAla = CN(CCC(=O)[*:2])[*:1]; NMeL = CN[C@@H](CC(C)C)C(=O)O; NMeV = CN[C@H](C(=O)O)C(C)C; NMeA = CN[C@@H](C)C(=O)O; Piperidide = C1CCN(*)CC1; β3hA = C[C@H](N)CC(=O)O; Sar = CNCC(=O)O; tBu = CC(C)(C)*
How the values were obtained:
[1] = PAMPA (parallel artificial membrane permeability assay); assay type: in vitro ADME; details: for Papp at 18 hours, 50 µM: PAMPA
Outline: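 Artificial membrane was 10% (w/v) egg lecithin plus 0.5% (w/v) cholesterol in dodecane on a PVDF filter. A 10 mM DMSO stock was added at 0.5% (v/v) to donor buffer (50 mM MOPSO, pH 6.5, 5.0% glycocholic acid). After 18 h at 37 °C, LC/MS or LC/UV gave donor and acceptor levels for Pe.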

[2] = Metabolic stability in human hepatic microsome; assay type: in vitro ADME; details: microsomes
[3] = membrane permeation rate (Pe), 50 mM MOPSO buffer pH 6.5 with 5.0% glycocholic acid, 37° C., 18 hours, read-out: iPAMPA Pe
[4] = pH 7.4, human hepatic microsome, NADPH(+), read-out: CL NADPH(+)

| SMILES | Papp at 18 hours, 50 µM [1, 3] | microsomal CLint at 1 uM [2, 4] | Papp at 18 hours, 50 µM ([1]; pH 6.5) | microsomal CLint at 1 uM ([2]; human, pH 7.4, CL NADPH(+)) | iPAMPA Pe ([1]; membrane permeation rate (Pe), 50 mM MOPSO buffer pH 6.5 with 5.0% glycocholic acid, 37° C., 18 hours) |
| --- | --- | --- | --- | --- | --- |
| CC[C@H](C)[C@@H]1NC(=O)CCCCc2cccc(c2)C[C@@H](C(=O)N2CCCCC2)NC(=O)[C@H](C)N(C)C(=O)[C@H](CC(C)C)N(C)C(=O)CN(C)C(=O)[C@H]([C@@H](C)O)NC(=O)[C@H](Cc2ccccc2)N(C)C(=O)[C@H](CC(C)C)N(C)C(=O)[C@H](C)NC(=O)[C@H](C(C)C)N(C)C(=O)[C@H](Cc2ccccc2)N(C)C1=O [DP-876] (I[NMeF][NMeV]A[NMeL][NMeF]T[Sar][NMeL][NMeA][Phe(3-(CH2)4CO)]-Piperidide; lactam N-11) | 55 ×10⁻⁶ cm/s | 103 µL/min/mg | – | – | – |
| CC(C)C[C@H]1C(=O)N(C)[C@@H](Cc2ccccc2)C(=O)N[C@H](C(=O)N2CCCCC2)CC(=O)N[C@H](C(C)C)C(=O)N[C@@H](C)C(=O)N[C@@H]([C@@H](C)O)C(=O)N(C)[C@@H](C)C(=O)N[C@@H](Cc2ccccc2)C(=O)N1C [DP-526] ([dV]AT[NMeA]F[NMeL][NMeF]D-Piperidide; lactam N-8) | 14 ×10⁻⁶ cm/s | 49 µL/min/mg | – | – | – |
| CC(C)C[C@H]1C(=O)N[C@H](C(=O)N2CCCCC2)CC(=O)N(C)CC(=O)N[C@@H]([C@@H](C)O)C(=O)N(C)[C@@H](C)C(=O)N[C@@H](COC(C)(C)C)C(=O)N(C)[C@@H](Cc2ccccc2)C(=O)N1C [DP-531] ([Sar]T[NMeA]S(tBu)[NMeF][NMeL]D-Piperidide; lactam N-7) | 5.8 ×10⁻⁶ cm/s | 42 µL/min/mg | – | – | – |
| CC(C)C[C@H]1C(=O)N(C)[C@@H](C)C(=O)N(C)[C@@H](C)C(=O)N(C)[C@@H](Cc2ccccc2)C(=O)N[C@@H]([C@@H](C)O)C(=O)N(C)[C@@H](Cc2ccccc2)C(=O)N(C)[C@@H](CC(C)C)C(=O)N2CCC[C@H]2C(=O)N[C@@H](C)CC(=O)N[C@@H](C)C(=O)NCC(=O)N1C [DP-766] (cyclo(AG[NMeL][NMeA][NMeA][NMeF]T[NMeF][NMeL]P[β3hA])) | – | – | 13 ×10⁻⁶ cm/s | 54 µL/min/mg | – |
| CC(C)C[C@@H]1NC(=O)[C@H](CC(C)C)N(C)C(=O)CCN(C)C(=O)C[C@@H](C(=O)N(C)[C@@H](Cc2ccccc2)C(=O)N[C@@H](C)C(=O)N2CCCCC2)NC(=O)[C@H]([C@@H](C)O)NC(=O)[C@H](CC(C)C)N(C)C(=O)[C@H](Cc2ccccc2)NC(=O)[C@H](Cc2ccccc2)N(C)C(=O)[C@H](CC(C)C)N(C)C1=O [DP-461] ([NMeβAla][NMeL]L[NMeL][NMeF]F[NMeL]TD[NMeF]A-Piperidide; lactam N-9) | 33 ×10⁻⁶ cm/s | 78 µL/min/mg | – | – | – |
| CC[C@H](C)[C@H](NC(=O)[C@H](CC(C)C)NC(=O)[C@H](Cc1ccccc1)NC(=O)[C@@H]1CC(=O)N[C@@H](C)C(=O)N[C@@H]([C@@H](C)CC)C(=O)N(C)[C@@H](C)C(=O)N(C)[C@@H](Cc2ccccc2)C(=O)N[C@@H]([C@@H](C)O)C(=O)N(C)[C@@H](Cc2ccccc2)C(=O)N[C@@H](CC(C)C)C(=O)N2CCC[C@H]2C(=O)N1)C(=O)N[C@@H](C)C(=O)N1CCCCC1 [DP-666] (AI[NMeA][NMeF]T[NMeF]LPDFLIA-Piperidide; lactam N-9) | – | – | 3 ×10⁻⁶ cm/s | 74 µL/min/mg | – |
| CC(C)C[C@H]1C(=O)N(C)[C@@H](CC(C)C)C(=O)N[C@@H](C(C)C)C(=O)N[C@H](C(=O)N(C)[C@@H](Cc2ccccc2)C(=O)N(C)[C@@H](Cc2ccccc2)C(=O)N[C@@H](C)C(=O)N2CCCCC2)CC(=O)N(C)CCC(=O)N(C)[C@@H](C)C(=O)N(C)[C@@H](Cc2ccccc2)C(=O)N[C@@H]([C@@H](C)O)C(=O)N(C)CC(=O)N1C [DP-212] ([NMeβAla][NMeA][NMeF]T[Sar][NMeL][NMeL]VD[NMeF][NMeF]A-Piperidide; lactam N-9) | 29 ×10⁻⁶ cm/s | 27 µL/min/mg | – | – | – |
| CC[C@H](C)[C@H]1C(=O)N[C@H](C(=O)N2CCCCC2)Cc2ccc(cc2)CCCCCC(=O)N[C@@H]([C@@H](C)O)C(=O)N(C)[C@@H](Cc2ccccc2)C(=O)N[C@@H](CC(C)C)C(=O)N2CCC[C@H]2C(=O)N[C@@H](C(C)C)C(=O)N[C@@H](Cc2ccccc2)C(=O)N(C)CC(=O)N[C@@H](CC(C)C)C(=O)N[C@@H](C)C(=O)N1C [DP-878] (T[NMeF]LPVF[Sar]LA[NMeI][Phe(4-(CH2)5CO)]-Piperidide; lactam N-11) | 23 ×10⁻⁶ cm/s | 152 µL/min/mg | – | – | – |
| CC[C@H](C)[C@@H]1NC(=O)CCN(C)C(=O)C[C@@H](C(=O)N(C)[C@@H](Cc2ccccc2)C(=O)N(C)[C@@H](Cc2ccccc2)C(=O)N[C@@H](C)C(=O)N2CCCCC2)NC(=O)[C@H](C(C)C)N(C)C(=O)[C@H](C)NC(=O)[C@H](CC(C)C)N(C)C(=O)CN(C)C(=O)[C@H]([C@@H](C)O)NC(=O)[C@H](C)N(C)C(=O)[C@H](Cc2ccccc2)N(C)C1=O [DP-495] ([NMeβAla]I[NMeF][NMeA]T[Sar][NMeL]A[NMeV]D[NMeF][NMeF]A-Piperidide; lactam N-10) | 21 ×10⁻⁶ cm/s | 7 µL/min/mg | – | – | – |
| CC(C)C[C@H]1C(=O)N(C)[C@@H](Cc2ccccc2)C(=O)N(C)[C@@H](CC(C)C)C(=O)N[C@H](C(=O)N2CCCCC2)CC(=O)N[C@H](C(C)C)C(=O)N[C@@H](C)C(=O)N[C@@H]([C@@H](C)O)C(=O)N(C)[C@@H](C)C(=O)N[C@@H](Cc2ccccc2)C(=O)N1C [DP-78] ([dV]AT[NMeA]F[NMeL][NMeF][NMeL]D-Piperidide; lactam N-9) | – | – | 38 ×10⁻⁶ cm/s | 57 µL/min/mg | – |
| CC[C@H](C)[C@@H]1NC(=O)[C@H](C)NC(=O)C[C@@H](C(=O)N2CCCCC2)NC(=O)[C@H](CC(C)C)NC(=O)[C@H](CC(C)C)NC(=O)[C@H](C(C)C)NC(=O)[C@H](C)N(C)C(=O)[C@H](Cc2ccccc2)NC(=O)CNC(=O)[C@H]([C@@H](C)O)NC(=O)[C@H](CC(C)C)N(C)C(=O)[C@@H]2CCCN2C1=O [DP-5] (AIP[NMeL]TGF[NMeA]VLLD-Piperidide; lactam N-12) | – | – | 13 ×10⁻⁶ cm/s | 68 µL/min/mg | – |
| CC(C)C[C@H]1C(=O)N(C)[C@@H](CC(C)C)C(=O)N[C@H](C(=O)N(C)[C@@H](Cc2ccccc2)C(=O)N[C@@H](C)C(=O)N2CCCCC2)CC(=O)N[C@H](C(C)C)C(=O)N(C)[C@@H](C)C(=O)N(C)[C@@H](Cc2ccccc2)C(=O)N(C)[C@@H](CC(C)C)C(=O)N[C@@H]([C@@H](C)O)C(=O)N(C)CC(=O)N[C@@H](C(C)C)C(=O)N1C [DP-123] ([dV][NMeA][NMeF][NMeL]T[Sar]V[NMeL][NMeL]D[NMeF]A-Piperidide; lactam N-10) | 58 ×10⁻⁶ cm/s | 21 µL/min/mg | – | – | – |
| CC(C)C[C@H]1C(=O)NCC(=O)N(C)[C@@H](C(C)C)C(=O)N[C@@H]([C@@H](C)O)C(=O)N[C@@H](Cc2ccccc2)C(=O)N[C@H](C(=O)N(C)[C@@H](Cc2ccccc2)C(=O)N(C)[C@@H](Cc2ccccc2)C(=O)N[C@@H](C)C(=O)N2CCCCC2)CC(=O)N(C)CCC(=O)N(C)[C@@H](C(C)C)C(=O)N[C@@H](C(C)C)C(=O)N(C)[C@@H](Cc2ccccc2)C(=O)N1C [DP-390] ([NMeβAla][NMeV]V[NMeF][NMeL]G[NMeV]TFD[NMeF][NMeF]A-Piperidide; lactam N-10) | 3.5 ×10⁻⁶ cm/s | 52 µL/min/mg | – | – | – |
| CC[C@H](C)[C@H](NC(=O)[C@H](CC(C)C)N(C)C(=O)[C@H](Cc1ccccc1)NC(=O)[C@H](Cc1ccccc1)N(C)C(=O)[C@@H]1CC(=O)N(C)[C@@H](C)C(=O)N[C@@H](C(C)C)C(=O)N[C@@H](CC(C)C)C(=O)N(C)[C@@H](Cc2ccccc2)C(=O)N[C@@H](CC(C)C)C(=O)N[C@@H]([C@@H](C)O)C(=O)N1)C(=O)N1CCCCC1 [DP-921] ([NMeA]VL[NMeF]LTD[NMeF]F[NMeL]I-Piperidide; lactam N-7) | 0.34 ×10⁻⁶ cm/s | 88 µL/min/mg | – | – | – |
| CC[C@H](C)[C@H]1C(=O)N[C@@H](CC(C)C)C(=O)N(C)[C@@H](C)C(=O)N(C)[C@@H](Cc2ccccc2)C(=O)NCC(=O)N[C@@H]([C@@H](C)O)C(=O)N[C@@H](Cc2ccccc2)C(=O)N(C)[C@@H](CC(C)C)C(=O)N2CCC[C@H]2C(=O)N[C@H](C(=O)N2CCCCC2)Cc2cccc(c2)CCCCC(=O)N[C@@H](CC(C)C)C(=O)N1C [DP-877] (L[NMeI]L[NMeA][NMeF]GTF[NMeL]P[Phe(3-(CH2)4CO)]-Piperidide; lactam N-11) | 4.6 ×10⁻⁶ cm/s | 43 µL/min/mg | – | – | – |
| CC[C@H](C)[C@@H]1NC(=O)CN(C)C(=O)[C@H]([C@@H](C)O)NC(=O)[C@H](CC(C)C)N(C)C(=O)[C@H](Cc2ccccc2)N(C)C(=O)CCN(C)C(=O)C[C@@H](C(=O)N2CCCCC2)NC(=O)[C@H](CC(C)C)N(C)C(=O)[C@H](CC(C)C)N(C)C1=O [DP-440] ([NMeβAla][NMeF][NMeL]T[Sar]I[NMeL][NMeL]D-Piperidide; lactam N-9) | 29 ×10⁻⁶ cm/s | 124 µL/min/mg | – | – | – |
| CC[C@H](C)[C@@H]1NC(=O)[C@H](Cc2ccccc2)NC(=O)[C@H](CC(C)C)NC(=O)[C@@H](C)NC(=O)C[C@@H](C(=O)N2CCCCC2)NC(=O)[C@H](Cc2ccccc2)NC(=O)[C@H](CC(C)C)NC(=O)[C@H]([C@@H](C)O)NC(=O)[C@H](Cc2ccccc2)NC(=O)[C@H](CC(C)C)NC1=O [DP-515] ([dA]LFILFTLFD-Piperidide; lactam N-10) | – | 23 µL/min/mg | – | – | 1.0E−07 |
| CC[C@H](C)[C@H](NC(=O)[C@H](C)N(C)C(=O)[C@H](CC(C)C)N(C)C(=O)[C@@H](NC(=O)[C@@H]1CC(=O)N(C)[C@@H](C)C(=O)N[C@@H]([C@@H](C)O)C(=O)N(C)[C@@H](Cc2ccccc2)C(=O)N[C@@H](C(C)C)C(=O)N2CCC[C@H]2C(=O)N(C)[C@@H](Cc2ccccc2)C(=O)N[C@@H](CC(C)C)C(=O)N(C)[C@@H](Cc2ccccc2)C(=O)N1)C(C)C)C(=O)N1CCCCC1 [DP-943] ([NMeA]T[NMeF]VP[NMeF]L[NMeF]DV[NMeL][NMeA]I-Piperidide; lactam N-9) | – | – | 0.1 ×10⁻⁶ cm/s | 7 µL/min/mg | – |

— US9409952B2, “Peptide-compound cyclization method” (Chugai Seiyaku Kabushiki Kaisha, priority 2011, dated 2016)
